{"source": "paper PMC6540285", "about": "“Evaluation of Protein Kinase Inhibitors with PLK4 Cross-Over Potential in a Pre-Clinical Model of Cancer” (International Journal of Molecular Sciences, 2019)", "key": {"PRKCB2 (PKC beta II)": {"target": "PRKCB2 (PKC beta II) (Homo sapiens, UniProt P05771)", "assay": "SelectScreen kinase profiling, ZLYTE", "type": "biochemical"}, "CASK": {"target": "CASK (Homo sapiens, UniProt O14936)", "assay": "SelectScreen kinase profiling, LanthaScreen binding"}, "hERG channel": {"target": "hERG channel (Homo sapiens, UniProt Q12809)", "assay": "Predictor hERG fluorescence polarization assay", "settings": "10000nM"}, "AXL": {"target": "AXL (Homo sapiens, UniProt P30530)", "assay": "SelectScreen kinase profiling, ZLYTE", "type": "biochemical"}, "[1]": {"target": "CSNK1E (CK1 epsilon) R178C (Homo sapiens, UniProt P49674, R178C)", "sequence (P49674 whole entry R178C)": "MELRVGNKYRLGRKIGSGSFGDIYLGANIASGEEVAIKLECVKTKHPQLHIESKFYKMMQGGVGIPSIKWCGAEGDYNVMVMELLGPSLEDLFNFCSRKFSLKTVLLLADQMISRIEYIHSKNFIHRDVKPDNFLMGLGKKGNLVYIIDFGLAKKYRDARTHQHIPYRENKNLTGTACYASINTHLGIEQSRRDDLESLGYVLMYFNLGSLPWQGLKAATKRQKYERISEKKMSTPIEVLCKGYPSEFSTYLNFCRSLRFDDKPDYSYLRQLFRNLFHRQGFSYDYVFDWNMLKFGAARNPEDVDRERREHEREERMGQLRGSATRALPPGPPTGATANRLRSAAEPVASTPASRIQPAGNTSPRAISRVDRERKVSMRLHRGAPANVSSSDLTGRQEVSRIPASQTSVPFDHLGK", "assay": "SelectScreen kinase profiling, ZLYTE", "type": "biochemical"}, "CDC42 BPA (MRCKA)": {"target": "CDC42 BPA (MRCKA) (Homo sapiens, UniProt Q5VT25)", "sequence (Q5VT25 whole entry)": "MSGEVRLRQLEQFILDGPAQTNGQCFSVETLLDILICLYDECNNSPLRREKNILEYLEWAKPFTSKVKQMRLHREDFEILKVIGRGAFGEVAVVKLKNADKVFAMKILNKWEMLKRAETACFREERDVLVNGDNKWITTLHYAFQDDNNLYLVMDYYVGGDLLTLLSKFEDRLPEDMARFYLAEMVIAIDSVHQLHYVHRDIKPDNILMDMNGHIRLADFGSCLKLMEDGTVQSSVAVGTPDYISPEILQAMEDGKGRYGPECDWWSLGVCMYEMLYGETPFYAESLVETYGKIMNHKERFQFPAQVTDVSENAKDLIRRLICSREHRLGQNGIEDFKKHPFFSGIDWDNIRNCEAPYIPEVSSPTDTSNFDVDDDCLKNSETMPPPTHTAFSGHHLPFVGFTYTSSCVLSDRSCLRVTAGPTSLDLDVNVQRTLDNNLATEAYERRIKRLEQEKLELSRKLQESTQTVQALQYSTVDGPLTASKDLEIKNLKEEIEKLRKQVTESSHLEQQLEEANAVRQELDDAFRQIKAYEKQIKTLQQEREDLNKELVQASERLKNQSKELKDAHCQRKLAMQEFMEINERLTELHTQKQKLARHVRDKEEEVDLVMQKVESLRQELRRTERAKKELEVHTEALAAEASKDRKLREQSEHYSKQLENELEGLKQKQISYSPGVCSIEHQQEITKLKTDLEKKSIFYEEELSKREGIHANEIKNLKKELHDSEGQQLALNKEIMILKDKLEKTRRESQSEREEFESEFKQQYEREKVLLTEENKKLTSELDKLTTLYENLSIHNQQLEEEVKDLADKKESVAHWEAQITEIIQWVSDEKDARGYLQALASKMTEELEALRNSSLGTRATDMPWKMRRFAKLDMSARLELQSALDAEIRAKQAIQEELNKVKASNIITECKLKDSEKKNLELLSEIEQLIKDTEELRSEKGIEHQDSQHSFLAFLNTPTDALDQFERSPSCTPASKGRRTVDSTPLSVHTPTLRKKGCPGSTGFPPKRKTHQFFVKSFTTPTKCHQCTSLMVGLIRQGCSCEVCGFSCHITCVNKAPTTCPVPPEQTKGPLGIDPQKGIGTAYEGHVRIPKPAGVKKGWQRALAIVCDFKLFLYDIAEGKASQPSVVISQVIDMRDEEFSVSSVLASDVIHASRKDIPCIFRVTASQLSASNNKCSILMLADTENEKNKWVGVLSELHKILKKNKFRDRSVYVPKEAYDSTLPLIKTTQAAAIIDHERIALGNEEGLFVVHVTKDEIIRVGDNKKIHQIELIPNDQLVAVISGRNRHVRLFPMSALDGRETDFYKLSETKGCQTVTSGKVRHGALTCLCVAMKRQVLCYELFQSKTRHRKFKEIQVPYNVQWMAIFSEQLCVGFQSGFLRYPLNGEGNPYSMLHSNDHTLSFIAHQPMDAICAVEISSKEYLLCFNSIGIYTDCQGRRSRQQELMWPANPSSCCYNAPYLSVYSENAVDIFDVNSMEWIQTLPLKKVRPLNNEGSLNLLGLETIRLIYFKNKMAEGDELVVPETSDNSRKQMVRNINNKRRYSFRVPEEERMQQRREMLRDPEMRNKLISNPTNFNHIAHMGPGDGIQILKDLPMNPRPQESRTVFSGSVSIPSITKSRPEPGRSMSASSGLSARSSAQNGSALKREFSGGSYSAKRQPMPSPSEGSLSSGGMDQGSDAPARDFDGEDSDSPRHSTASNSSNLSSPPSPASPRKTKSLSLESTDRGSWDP", "assay": "SelectScreen kinase profiling, ZLYTE", "type": "biochemical"}, "ERBB2 (HER2)": {"target": "ERBB2 (HER2) (Homo sapiens, UniProt P04626)", "assay": "SelectScreen kinase profiling, ZLYTE", "type": "biochemical"}, "CSNK1A1L": {"target": "CSNK1A1L (Homo sapiens, UniProt Q8N752)", "assay": "SelectScreen kinase profiling, ZLYTE", "type": "biochemical"}, "FGFR3 G697C": {"target": "FGFR3 G697C (Homo sapiens, UniProt P22607, G697C)", "assay": "SelectScreen kinase profiling, LanthaScreen binding"}, "GSK3A (GSK3 alpha)": {"target": "GSK3A (GSK3 alpha) (Homo sapiens, UniProt P49840)", "assay": "SelectScreen kinase profiling, ZLYTE", "type": "biochemical"}, "GRK1": {"target": "GRK1 (Homo sapiens, UniProt Q15835)", "assay": "SelectScreen kinase profiling, LanthaScreen binding", "settings": "GRK1, 10 µM"}, "CDC42 BPG (MRCKG)": {"target": "CDC42 BPG (MRCKG) (Homo sapiens, UniProt Q6DT37)", "assay": "SelectScreen kinase profiling, ZLYTE", "type": "biochemical"}, "ABL1 Y253F": {"target": "ABL1 Y253F (Homo sapiens, UniProt P00519, Y253F)", "assay": "SelectScreen kinase profiling, ZLYTE", "type": "biochemical"}, "BLK": {"target": "BLK (Homo sapiens, UniProt P51451)", "assay": "SelectScreen kinase profiling, ZLYTE", "type": "biochemical"}, "PIP5K1A": {"target": "PIP5K1A (Homo sapiens, UniProt Q99755)", "assay": "SelectScreen kinase profiling, Adapta", "type": "biochemical"}, "CYP3A4": {"target": "CYP3A4 (Homo sapiens, UniProt P08684)", "sequence (P08684 whole entry)": "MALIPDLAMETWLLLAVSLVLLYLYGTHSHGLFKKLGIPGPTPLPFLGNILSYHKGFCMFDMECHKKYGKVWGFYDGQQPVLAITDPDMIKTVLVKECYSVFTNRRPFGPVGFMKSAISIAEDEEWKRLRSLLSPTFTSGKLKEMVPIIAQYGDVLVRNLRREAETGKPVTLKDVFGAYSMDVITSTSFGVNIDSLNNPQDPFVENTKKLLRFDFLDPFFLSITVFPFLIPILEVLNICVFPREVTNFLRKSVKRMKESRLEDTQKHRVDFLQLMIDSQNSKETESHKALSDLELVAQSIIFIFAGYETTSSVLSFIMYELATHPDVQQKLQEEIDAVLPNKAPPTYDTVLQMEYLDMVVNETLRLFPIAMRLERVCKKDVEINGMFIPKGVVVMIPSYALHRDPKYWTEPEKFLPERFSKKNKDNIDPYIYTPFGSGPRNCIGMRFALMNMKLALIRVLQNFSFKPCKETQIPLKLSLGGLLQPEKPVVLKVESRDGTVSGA", "assay": "SelectScreen P450 Vivid biochemical assay", "settings": "10000nM"}, "PI4KB (PI4K beta)": {"target": "PI4KB (PI4K beta) (Homo sapiens, UniProt Q9UBF8)", "sequence (Q9UBF8 whole entry)": "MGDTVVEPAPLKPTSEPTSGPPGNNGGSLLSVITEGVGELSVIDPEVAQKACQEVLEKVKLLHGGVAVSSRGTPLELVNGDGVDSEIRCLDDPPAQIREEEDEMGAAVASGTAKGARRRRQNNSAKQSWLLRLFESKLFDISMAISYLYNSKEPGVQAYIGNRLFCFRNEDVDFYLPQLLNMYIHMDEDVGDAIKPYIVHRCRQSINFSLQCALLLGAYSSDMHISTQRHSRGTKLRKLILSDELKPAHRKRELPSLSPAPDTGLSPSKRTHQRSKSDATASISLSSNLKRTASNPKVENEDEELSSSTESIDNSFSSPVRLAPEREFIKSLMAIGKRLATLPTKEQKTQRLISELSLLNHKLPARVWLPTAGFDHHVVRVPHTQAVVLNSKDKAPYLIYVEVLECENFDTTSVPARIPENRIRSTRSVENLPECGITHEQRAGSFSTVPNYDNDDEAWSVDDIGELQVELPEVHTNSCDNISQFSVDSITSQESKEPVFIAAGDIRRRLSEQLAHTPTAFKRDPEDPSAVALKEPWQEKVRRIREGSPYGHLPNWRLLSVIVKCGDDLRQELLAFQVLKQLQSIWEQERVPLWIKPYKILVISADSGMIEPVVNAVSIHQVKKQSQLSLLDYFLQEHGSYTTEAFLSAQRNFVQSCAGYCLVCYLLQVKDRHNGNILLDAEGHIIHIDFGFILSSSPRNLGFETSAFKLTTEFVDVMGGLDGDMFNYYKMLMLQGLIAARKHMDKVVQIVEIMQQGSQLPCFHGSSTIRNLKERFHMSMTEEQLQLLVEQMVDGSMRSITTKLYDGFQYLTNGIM", "assay": "SelectScreen kinase profiling, Adapta", "type": "biochemical"}, "TGFBR1 (ALK5)": {"target": "TGFBR1 (ALK5) (Homo sapiens, UniProt P36897)", "assay": "SelectScreen kinase profiling, LanthaScreen binding", "text": "Kinase Technology % Inhibition Avg Kinase Technology % Inhibition Avg"}, "MAP3K3 (MEKK3)": {"target": "MAP3K3 (MEKK3) (Homo sapiens, UniProt Q99759)", "assay": "SelectScreen kinase profiling, LanthaScreen binding"}, "MST4": {"target": "MST4 (Homo sapiens, UniProt Q9P289)", "assay": "SelectScreen kinase profiling, ZLYTE", "type": "biochemical", "settings": "MST4, 10 µM"}, "[2]": {"target": "MAP2K1 (MEK1) S218D S222D (Homo sapiens, UniProt Q02750, S218D/S222D)", "sequence (Q02750 whole entry S218D/S222D)": "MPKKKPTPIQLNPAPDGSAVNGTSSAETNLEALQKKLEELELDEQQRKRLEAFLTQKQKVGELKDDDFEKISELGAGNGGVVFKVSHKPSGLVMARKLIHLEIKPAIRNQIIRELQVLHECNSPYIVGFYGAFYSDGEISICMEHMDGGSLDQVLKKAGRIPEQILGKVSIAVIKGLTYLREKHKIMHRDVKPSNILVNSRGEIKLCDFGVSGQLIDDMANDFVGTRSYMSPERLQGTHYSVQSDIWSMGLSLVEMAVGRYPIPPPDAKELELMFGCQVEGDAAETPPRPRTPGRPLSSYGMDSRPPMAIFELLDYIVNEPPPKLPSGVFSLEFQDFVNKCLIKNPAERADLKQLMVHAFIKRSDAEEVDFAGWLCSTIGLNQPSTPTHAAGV", "assay": "SelectScreen kinase profiling, LanthaScreen binding"}, "MAPK3 (ERK1)": {"target": "MAPK3 (ERK1) (Homo sapiens, UniProt P27361)", "assay": "SelectScreen kinase profiling, ZLYTE", "type": "biochemical"}, "GRK7": {"target": "GRK7 (Homo sapiens, UniProt Q8WTQ7)", "assay": "SelectScreen kinase profiling, ZLYTE", "type": "biochemical", "settings": "GRK7, 10 µM"}, "NEK8": {"target": "NEK8 (Homo sapiens, UniProt Q86SG6)", "assay": "SelectScreen kinase profiling, LanthaScreen binding", "settings": "NEK8, 10 µM"}, "CDK4/cyclin D3": {"target": "CDK4/cyclin D3 (Homo sapiens, UniProt P11802)", "assay": "SelectScreen kinase profiling, Adapta", "type": "biochemical", "settings": "CDK4/cyclin D3, 10 µM"}, "KIT V559D V654A": {"target": "KIT V559D V654A (Homo sapiens, UniProt P10721, V559D/V654A)", "assay": "SelectScreen kinase profiling, ZLYTE", "type": "biochemical"}, "AMPK A1/B1/G1": {"target": "AMPK A1/B1/G1 (Homo sapiens, UniProt Q13131)", "assay": "SelectScreen kinase profiling, ZLYTE", "type": "biochemical", "settings": "AMPK A1/B1/G1, 10 µM"}, "DCAMKL1 (DCLK1)": {"target": "DCAMKL1 (DCLK1) (Homo sapiens, UniProt O15075)", "assay": "SelectScreen kinase profiling, ZLYTE", "type": "biochemical"}, "MAP3K9 (MLK1)": {"target": "MAP3K9 (MLK1) (Homo sapiens, UniProt P80192)", "assay": "SelectScreen kinase profiling, ZLYTE", "type": "biochemical"}, "FGFR1": {"target": "FGFR1 (Homo sapiens, UniProt P11362)", "assay": "SelectScreen kinase profiling, ZLYTE", "type": "biochemical", "settings": "FGFR1, 10 µM"}, "MAP2K5 (MEK5)": {"target": "MAP2K5 (MEK5) (Homo sapiens, UniProt Q13163)", "assay": "SelectScreen kinase profiling, LanthaScreen binding"}, "RPS6KB2 (p70S6Kb)": {"target": "RPS6KB2 (p70S6Kb) (Homo sapiens, UniProt Q9UBS0)", "assay": "SelectScreen kinase profiling, ZLYTE", "type": "biochemical"}, "MAPK9 (JNK2)": {"target": "MAPK9 (JNK2) (Homo sapiens, UniProt P45984)", "sequence (P45984 whole entry)": "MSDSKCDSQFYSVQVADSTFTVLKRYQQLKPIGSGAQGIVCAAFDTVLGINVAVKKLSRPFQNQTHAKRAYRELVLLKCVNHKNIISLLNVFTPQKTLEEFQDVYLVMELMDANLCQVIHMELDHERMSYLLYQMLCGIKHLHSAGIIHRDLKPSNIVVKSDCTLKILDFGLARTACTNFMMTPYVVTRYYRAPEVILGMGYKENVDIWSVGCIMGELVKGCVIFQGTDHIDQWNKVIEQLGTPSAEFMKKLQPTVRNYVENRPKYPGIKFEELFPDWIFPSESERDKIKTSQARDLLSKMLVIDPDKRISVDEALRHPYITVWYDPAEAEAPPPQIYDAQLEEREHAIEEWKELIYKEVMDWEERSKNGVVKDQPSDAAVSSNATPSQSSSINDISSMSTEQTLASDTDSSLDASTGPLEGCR", "assay": "SelectScreen kinase profiling, LanthaScreen binding"}, "FGFR4": {"target": "FGFR4 (Homo sapiens, UniProt P22455)", "assay": "SelectScreen kinase profiling, ZLYTE", "type": "biochemical", "settings": "FGFR4, 10 µM"}, "MET (cMet) Y1235D": {"target": "MET (cMet) Y1235D (Homo sapiens, UniProt P08581, Y1235D)", "assay": "SelectScreen kinase profiling, ZLYTE", "type": "biochemical"}, "DYRK1B": {"target": "DYRK1B (Homo sapiens, UniProt Q9Y463)", "assay": "SelectScreen kinase profiling, ZLYTE", "type": "biochemical"}, "CHUK (IKK alpha)": {"target": "CHUK (IKK alpha) (Homo sapiens, UniProt O15111)", "assay": "SelectScreen kinase profiling, Adapta", "type": "biochemical"}, "PKMYT1": {"target": "PKMYT1 (Homo sapiens, UniProt Q99640)", "sequence (Q99640 whole entry)": "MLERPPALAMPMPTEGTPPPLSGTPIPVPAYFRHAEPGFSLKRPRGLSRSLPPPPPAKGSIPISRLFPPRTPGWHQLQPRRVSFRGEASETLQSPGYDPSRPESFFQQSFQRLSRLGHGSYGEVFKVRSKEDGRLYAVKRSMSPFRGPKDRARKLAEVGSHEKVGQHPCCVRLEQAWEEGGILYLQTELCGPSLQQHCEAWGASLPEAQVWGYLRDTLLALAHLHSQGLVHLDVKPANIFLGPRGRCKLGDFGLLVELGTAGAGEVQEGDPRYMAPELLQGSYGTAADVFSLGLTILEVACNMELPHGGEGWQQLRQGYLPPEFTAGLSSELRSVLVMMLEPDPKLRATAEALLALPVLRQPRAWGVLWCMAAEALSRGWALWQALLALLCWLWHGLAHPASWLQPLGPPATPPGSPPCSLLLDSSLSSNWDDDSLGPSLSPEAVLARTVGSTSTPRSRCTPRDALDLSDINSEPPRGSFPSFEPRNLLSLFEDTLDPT", "assay": "SelectScreen kinase profiling, LanthaScreen binding", "settings": "PKMYT1, 10 µM"}}, "data": [{"smiles": "O=C(c1ccc(/C=C/c2n[nH]c3ccccc23)cc1)N1CCNCC1", "note": "[KW-2449]", "values": [{"measurement": "inhibition at 10 µM", "setting": "PRKCB2 (PKC beta II)", "value": 71, "unit": "%"}, {"measurement": "inhibition at 10 µM", "setting": "CASK", "value": -63, "unit": "%"}, {"measurement": "hERG % Inhibition", "setting": "hERG channel", "value": 19, "unit": "%"}, {"measurement": "inhibition at 10 µM", "setting": "AXL", "value": 95, "unit": "%"}, {"measurement": "inhibition at 10 µM", "setting": "[1]", "value": 71, "unit": "%"}, {"measurement": "inhibition at 10 µM", "setting": "CDC42 BPA (MRCKA)", "value": 32, "unit": "%"}, {"measurement": "inhibition at 10 µM", "setting": "ERBB2 (HER2)", "value": 4, "unit": "%"}, {"measurement": "inhibition at 10 µM", "setting": "CSNK1A1L", "value": 20, "unit": "%"}, {"measurement": "inhibition at 10 µM", "setting": "FGFR3 G697C", "value": 78, "unit": "%"}, {"measurement": "inhibition at 10 µM", "setting": "GSK3A (GSK3 alpha)", "value": 63, "unit": "%"}, {"measurement": "inhibition at 10 µM", "setting": "GRK1", "value": 25, "unit": "%"}, {"measurement": "inhibition at 10 µM", "setting": "CDC42 BPG (MRCKG)", "value": 68, "unit": "%"}, {"measurement": "inhibition at 10 µM", "setting": "ABL1 Y253F", "value": 100, "unit": "%"}, {"measurement": "inhibition at 10 µM", "setting": "BLK", "value": 89, "unit": "%"}, {"measurement": "inhibition at 10 µM", "setting": "PIP5K1A", "value": 16, "unit": "%"}, {"measurement": "% Inhibition 3A4 BOMCC", "setting": "CYP3A4; substrate BOMCC", "value": 63, "unit": "%"}, {"measurement": "% Inhibition 3A4 DBOMF", "setting": "CYP3A4; substrate DBOMF", "value": 46, "unit": "%"}, {"measurement": "inhibition at 10 µM", "setting": "PI4KB (PI4K beta)", "value": 10, "unit": "%"}, {"measurement": "inhibition at 10 µM", "setting": "TGFBR1 (ALK5)", "value": 85, "unit": "%"}, {"measurement": "inhibition at 10 µM", "setting": "MAP3K3 (MEKK3)", "value": 82, "unit": "%"}, {"measurement": "inhibition at 10 µM", "setting": "MST4", "value": 92, "unit": "%"}, {"measurement": "inhibition at 10 µM", "setting": "[2]", "value": 66, "unit": "%"}, {"measurement": "inhibition at 10 µM", "setting": "MAPK3 (ERK1)", "value": 41, "unit": "%"}, {"measurement": "inhibition at 10 µM", "setting": "GRK7", "value": 41, "unit": "%"}, {"measurement": "inhibition at 10 µM", "setting": "NEK8", "value": 30, "unit": "%"}, {"measurement": "inhibition at 10 µM", "setting": "CDK4/cyclin D3", "value": 83, "unit": "%"}, {"measurement": "inhibition at 10 µM", "setting": "KIT V559D V654A", "value": 77, "unit": "%"}, {"measurement": "inhibition at 10 µM", "setting": "AMPK A1/B1/G1", "value": 97, "unit": "%"}, {"measurement": "inhibition at 10 µM", "setting": "DCAMKL1 (DCLK1)", "value": 57, "unit": "%"}, {"measurement": "inhibition at 10 µM", "setting": "MAP3K9 (MLK1)", "value": 102, "unit": "%"}, {"measurement": "inhibition at 10 µM", "setting": "FGFR1", "value": 96, "unit": "%"}, {"measurement": "inhibition at 10 µM", "setting": "MAP2K5 (MEK5)", "value": 84, "unit": "%"}, {"measurement": "inhibition at 10 µM", "setting": "RPS6KB2 (p70S6Kb)", "value": 37, "unit": "%"}, {"measurement": "inhibition at 10 µM", "setting": "MAPK9 (JNK2)", "value": 79, "unit": "%"}, {"measurement": "inhibition at 10 µM", "setting": "FGFR4", "value": 70, "unit": "%"}, {"measurement": "inhibition at 10 µM", "setting": "MET (cMet) Y1235D", "value": 88, "unit": "%"}, {"measurement": "inhibition at 10 µM", "setting": "DYRK1B", "value": 91, "unit": "%"}, {"measurement": "inhibition at 10 µM", "setting": "CHUK (IKK alpha)", "value": 96, "unit": "%"}, {"measurement": "inhibition at 10 µM", "setting": "PKMYT1", "value": -61, "unit": "%"}]}]}
